Experimental data reported in patent US20240174663A1, “PYRIMIDINE OR PYRIDINE DERIVATIVES USEFUL AS HCN2 MODULATORS” (King's College London, priority 2021, published 2024).
Counter-ions that a name gives are not always drawn.

Columns and labels:
HCN4 = target: T1, HCN4 (Homo sapiens, UniProt Q9Y3Q4); assay: HCN4 assay using PatchXpress 7000A (PX protocol, Example 25); assay type: cell-based; details: room temperature
T1 sequence (Q9Y3Q4 1-1203): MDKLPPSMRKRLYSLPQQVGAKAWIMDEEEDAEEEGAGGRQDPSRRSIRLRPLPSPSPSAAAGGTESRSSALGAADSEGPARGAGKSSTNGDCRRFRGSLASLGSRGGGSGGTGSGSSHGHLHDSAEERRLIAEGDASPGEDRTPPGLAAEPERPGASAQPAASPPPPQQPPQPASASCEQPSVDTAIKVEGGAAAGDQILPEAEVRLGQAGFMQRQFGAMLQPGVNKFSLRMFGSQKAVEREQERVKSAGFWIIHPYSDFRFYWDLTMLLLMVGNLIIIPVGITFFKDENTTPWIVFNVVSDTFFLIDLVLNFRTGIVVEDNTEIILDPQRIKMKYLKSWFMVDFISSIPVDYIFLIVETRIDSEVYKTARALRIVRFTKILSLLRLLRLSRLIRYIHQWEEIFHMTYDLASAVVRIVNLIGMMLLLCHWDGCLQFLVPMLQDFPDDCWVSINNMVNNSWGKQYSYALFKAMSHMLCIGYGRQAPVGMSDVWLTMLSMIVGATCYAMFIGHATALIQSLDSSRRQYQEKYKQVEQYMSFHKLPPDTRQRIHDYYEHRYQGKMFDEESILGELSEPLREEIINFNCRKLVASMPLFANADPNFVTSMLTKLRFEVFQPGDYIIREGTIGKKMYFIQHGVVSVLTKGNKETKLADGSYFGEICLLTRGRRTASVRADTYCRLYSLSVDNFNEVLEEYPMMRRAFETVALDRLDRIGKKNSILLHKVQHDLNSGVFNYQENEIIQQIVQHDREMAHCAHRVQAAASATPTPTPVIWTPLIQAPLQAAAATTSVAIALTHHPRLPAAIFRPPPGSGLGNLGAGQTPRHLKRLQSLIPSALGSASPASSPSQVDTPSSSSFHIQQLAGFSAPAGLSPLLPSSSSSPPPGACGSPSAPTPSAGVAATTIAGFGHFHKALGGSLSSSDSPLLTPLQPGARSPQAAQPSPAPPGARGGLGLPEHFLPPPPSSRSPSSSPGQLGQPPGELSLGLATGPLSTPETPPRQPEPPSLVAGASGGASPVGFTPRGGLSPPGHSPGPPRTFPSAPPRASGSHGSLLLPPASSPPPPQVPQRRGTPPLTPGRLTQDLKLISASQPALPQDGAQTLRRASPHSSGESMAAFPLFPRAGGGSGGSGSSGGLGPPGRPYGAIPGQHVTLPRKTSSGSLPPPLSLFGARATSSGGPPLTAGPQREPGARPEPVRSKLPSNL
Description: Example 25: Assay for HCN1 HCN2 and HCN4 Using PatchXpress 7000A
Solutions for recording HCN currents were:
The peak inward current measured at the end of the pulse to −110 mV (HCN1 and HCN2) or −130 mV (HCN4) was measured and any leak current subtracted to calculate the HCN current. The HCN current amplitude was measured after each control or compound addition and normalized to the control amplitude (Control A).
All experiments were performed at room temperature (approximately 22° C.).
Each test compound concentration was applied to the cell for seven (7) minutes, at which point the next cumulative concentration was applied.

WT Black6 strain mice = assay: Mouse neuropathic pain model (partial sciatic nerve ligation), von Frey filament; assay type: in vivo
Description: The model used was analogous to the model described in Seltzer Z, Dubner […] novel behavioural model of neuropathic pain disorders produced in rats by partial sciatic nerve injury, Pain 43: 205-218). […] Sci Transl Med 9: eaam6072. […] The mechanical pain threshold was measured by manual von Frey filament applied to the hind paw on the operated side, using the “up-down” method.

[1] = test system: guinea pigs with salicylate-induced tinnitus; assay: Short-term (salicylate) tinnitus model, gap induced inhibition of the acoustic startle (GPIAS) test; assay type: in vivo, guinea pig; details: 5 mg/kg s.c.; salicylate 350 mg/kg i.p., 2 h
From the text: (§1) Tinnitus in guinea pigs was monitored using the gap induced inhibition of the acoustic startle (GPIAS) test (see FIG. 4). GPIAS is reduced when tinnitus was present; see Berger, J. I. et al. Effects of the cannabinoid CB1 agonist ACEA on salicylate ototoxicity, hyperacusis and tinnitus in guinea pigs. Hearing research, (2017), and Coomber, B. et al. Neural changes accompanying tinnitus following unilateral acoustic trauma in the guinea pig. Eur J Neurosci 40, 2427-2441, (2014).
In FIG. 4, sound stimulus (above) and corresponding pinna reflex (below) are shown in freely moving guinea pigs. Stimuli with no gap and gap are presented in a randomised order. Traces contaminated by movement (the upper trace in “no gap”) were removed before analysis.
Tinnitus was induced within 1-2 hours in humans by high doses of salicylate. A similar short-term tinnitus model was implemented in guinea pigs by i.p. injection of salicylate. In all animals, salicylate caused behavioural inhibition of GPIAS (see bar 2 in FIG. 5).
Salicylate (350 mg/kg, i.p.) impairs behavioural gap detection 2 h after salicylate administration (see bar 2 in of FIG. 5). Gap detection was restored by blocking HCN channels with ivabradine (5 mg/kg, s.c.).

[2] = test system: guinea pigs with noise-exposure induced tinnitus; assay: Noise-exposure tinnitus model, GPIAS test; assay type: in vivo, guinea pig
From the text: as §1
The noise-exposure model is more clinically relevant than the salicylate model, as it parallels a common cause of tinnitus in humans. A second important point is that it is long-term, while tinnitus induced by salicylate is rapidly reversed following salicylate exposure.
GPIAS returns following drug wash-out (see bar D in FIG. 6).

[3] = Evaluation of CNS penetration: ivabradine in plasma, brain and auditory nerve; assay type: in vivo; details: guinea pig, brain (somatosensory cortex) / plasma, other: injection; 30 min after injection; read-out: amount detected in brain, % of plasma level
From the text: Ratios of total concentrations in preliminary experiments for plasma:brain:auditory nerve were 1:0.12:0.57 (n=2). The small amount (12% of plasma level) detected in brain is largely accounted for by the presence of ivabradine within the vascular supply of the brain. […] Pain 155, 1708-1719, (2014).

[4] = test system: mice (hearing thresholds); assay type: in vivo; details: adult mice, tone pulses 3 kHz to 42 kHz; 20 mg/kg ip
[5] = test system: mouse models of neuropathic pain; details: nerve injury, cancer chemotherapy and diabetic neuropathy models; cited from earlier work
[6] = test system: mouse model of diabetic neuropathy; details: in vivo; cited from earlier work

| SMILES | IC50 (HCN4) | mechanical analgesic effect (mechanical pain threshold, von Frey) (WT Black6 strain mice; 1 mg/kg i.p., day 5 after partial sciatic nerve ligation, operated hind paw) | hyperalgesia in contralateral (unoperated) hind paw (WT Black6 strain mice; i.p., mice after partial sciatic nerve ligation) | behavioural gap detection (GPIAS) after salicylate [1] | reduced GPIAS following noise exposure ([2]; 5 mg/kg s.c., unilateral noise exposure 110 dB, 1 h, 8 weeks prior) | effect on GPIAS in noise-exposed guinea pigs showing no behavioural evidence of tinnitus ([2]; control experiments, n=3) | Kp at 30 min [3] | ABR threshold or latency versus untreated [4] | analgesia in mouse models of neuropathic pain [5] | analgesia in mouse model of diabetic neuropathy [6] |
| --- | --- | --- | --- | --- | --- | --- | --- | --- | --- | --- |
| Cc1ccc(C#N)nc1C[C@H](N)c1ncccc1-c1noc2ccccc12 [Example 4, (S)-6-{2-Amino-2-[3-(benzo[d]isoxazol-3-yl)pyridine-2-yl]ethyl}-5-methylpyridin-2-carbonitrile hydrochloride] | 5.2 µM | full analgesia | No hyperalgesia observed | – | – | – | – | – | – | – |
| COc1cc2c(cc1OC)CC(=O)N(CCCN(C)C[C@H]1Cc3cc(OC)c(OC)cc31)CC2 [ivabradine] | – | – | – | restored | rapidly and completely reversed | without effect | 0.12 | no significant difference in ABR threshold or latency | effective analgesic | complete analgesia |
